# Measured values taken from patent US20200054671A1, “TREATMENT OF ANXIETY DISORDER AND AUGMENTATION OF ANTI-ANXIETY INTERVENTIONS BY ADMINISTRATION OF NOBLE GAS CONTAINING MIXTURES” (NOBILIS THERAPEUTICS, INC., priority 2016, published 2020).
# How the values were obtained:
# [1] = system: patients with panic disorder; assay: Clinical Global Impression Scale, improvement subscale (CGI-I); format: in vivo, human; conditions: for CGI-I, V3: Marked improvement, share of patients: after the third treatment
# Protocol: (§1) This investigator-initiated study was performed under a prospective clinical trial protocol approved by the Institute of Mental Health and Addictology, which is accredited by the Ministry of Health of the Russian Federation to conduct clinical trials (#57689). Study conduct was in compliance with all ethical standards and good clinical practice. Ninety outpatients with a diagnosis of “panic disorder» (F41.0) according to ICD-10 were enrolled through the Institute of Mental Health and Addictology. Five patients dropped out of the study due to minor side effects, predominantly lightheadedness and headaches, and 4 patients dropped out of the study for unspecified reasons. As the intention to treat analysis was not utilized due to the open label design of the study, 81 patients with PD (49 women and 32 men), mean age was 35.2 years (range […]) were studied. Patients were randomized into 2 groups: with “pure” PD (group 1) and “comorbid” PD, when it was co-diagnosed with other mental illnesses (group 2). All patients with isolated PD (Group 1, n=42) received monotherapy with xenon at the aforementioned schedule, while the majority of patients (94.9%) with PD and comorbid conditions, which were predominantly depression (group 2, n=39), in addition to xenon administration continued treatment for comorbid psychiatric disorders, which mainly consisted of antidepressants (SSRIs and SNRIs). In these patients, the reason for xenon treatment was the increase in the frequency and severity of panic attacks despite ongoing treatment with stable pharmacotherapy of at least 3 to 6 months' duration.
# (§2) Administration of xenon was performed through inhalation of xenon-oxygen mixtures that were escalated from 15%/85% to 30%/70% with titration increments of 5% per session. Each patient in the study underwent between 6 and 7 treatments with xenon-oxygen mixture. The first three sessions were carried out daily and from session 4 onward—every other day. The selected dosing regime and the composition of the gas mixtures were based on the historical evidence of safety of subanesthetic use of xenon in imaging.
# (§3) Medical grade xenon (“medksenon»®, 99.9999%, manufacturer: Atommedcenter, Moscow, Russia) and medical grade oxygen in separate containers were admixed. Mixing and administration of gases in preset concentration and volume was accomplished with the use of the medical device MAGi-AMTS1, which enables the operator to adjust the concentration of xenon in the gas mixture, and which contains the electronic flow meter with a software module that allows for such adjustments. Administration of xenon-oxygen mixture to the patient was carried out via a face mask. Patients were asked to slowly inhale, holding breath for 5 to 10 seconds; exhale into the loop and after 35-40 seconds exhale outside the contour and breath in the new portion of gas mixture. Xenon inhalation lasted from 2.5 to 4 minutes, and the xenon consumption was capped at 3.0 liters per procedure. The patients were assessed subjectively by the provider, while the vital signs (pulse, blood pressure, oxygen saturation) were continuously monitored.
# Patients were evaluated after each xenon inhalation and at 30 and 180 days after completion of treatment. To this end, we employed clinical psychopathological and clinical catamnestic methods, and psychometric scales that are widely used internationally to assess the treatment of mental disorders. Scale Assessment, Zung Self-Rating Anxiety Scale (SAS) was performed prior to starting therapy (V1), and at 1 and 6 months after treatment. According to this scale, SAS index of less than 45 points corresponds to the normal value, 45-59—to mild-to-moderate degree of anxiety, 60-74—to high degree of anxiety, more than 75—to an extremely high-level of anxiety. […]
# [2] = system: patients with panic disorder; assay: Hospital Anxiety and Depression Scale, anxiety subscale (HADS_T), open clinical trial of xenon inhalation; format: in vivo, human; conditions: for HADS-T, V6 − V1, mean paired difference: after 6 sessions vs baseline; for HADS_T total score: after 3 sessions (V3)
# Protocol: as §1, §2, §3
# Patients were evaluated after each xenon inhalation and at 30 and 180 days after completion of treatment. To this end, we employed clinical psychopathological and clinical catamnestic methods, and psychometric scales that are widely used internationally to assess the treatment of mental disorders. […]
smiles,measurement,setting,value
[Xe] [xenon],"CGI-I, V4: Minimal improvement, share of patients",[1]; Total (n = 81),40.7%
same,"CGI-I, V4: No changes, share of patients",[1]; Total (n = 81),4.9%
same,"CGI-I, V5: Marked improvement, share of patients",[1]; Total (n = 81),79.0%
same,"CGI-I, V5: Minimal improvement, share of patients",[1]; Total (n = 81),18.5%
same,"CGI-I, V5: Very marked improvement, share of patients",[1]; Total (n = 81),2.5%
same,"CGI-I, V6: Marked improvement, share of patients",[1]; Total (n = 81),66.7%
same,"CGI-I, V6: Very marked improvement, share of patients",[1]; Total (n = 81),33.3%
same,"CGI-I, V2: Marked deterioration, share of patients",[1]; «Comorbid PD» (n = 39),.0%
same,"CGI-I, V2: Marked improvement, share of patients",[1]; «Comorbid PD» (n = 39),12.8%
same,"CGI-I, V2: Minimal deterioration, share of patients",[1]; «Comorbid PD» (n = 39),.0%
same,"CGI-I, V2: Minimal improvement, share of patients",[1]; «Comorbid PD» (n = 39),61.5%
same,"CGI-I, V2: No changes, share of patients",[1]; «Comorbid PD» (n = 39),25.6%
same,"CGI-I, V3: Minimal improvement, share of patients",[1]; «Comorbid PD» (n = 39),69.2%
same,"CGI-I, V3: No changes, share of patients",[1]; «Comorbid PD» (n = 39),20.5%
same,"CGI-I, V4: Marked improvement, share of patients",[1]; «Comorbid PD» (n = 39),25.6%
same,"CGI-I, V4: Minimal improvement, share of patients",[1]; «Comorbid PD» (n = 39),64.1%
same,"CGI-I, V4: No changes, share of patients",[1]; «Comorbid PD» (n = 39),10.3%
same,"CGI-I, V5: Marked improvement, share of patients",[1]; «Comorbid PD» (n = 39),61.5%
same,"CGI-I, V5: Minimal improvement, share of patients",[1]; «Comorbid PD» (n = 39),38.5%
same,"CGI-I, V5: Very marked improvement, share of patients",[1]; «Comorbid PD» (n = 39),.0%
same,"CGI-I, V6: Marked improvement, share of patients",[1]; «Comorbid PD» (n = 39),87.2%
same,"CGI-I, V6: Very marked improvement, share of patients","[1]; «Comorbid PD» (n = 39), after 6 treatments",12.8%
same,"CGI-I, V3: Marked improvement, share of patients",[1]; «Comorbid PD» (n = 39),10.3%
same,"CGI-I, V2: Marked deterioration, share of patients",[1]; «Pure PD» (n = 42),2.4%
same,"CGI-I, V2: Marked improvement, share of patients",[1]; «Pure PD» (n = 42),11.9%
same,"CGI-I, V2: Minimal deterioration, share of patients",[1]; «Pure PD» (n = 42),2.4%
same,"CGI-I, V2: Minimal improvement, share of patients",[1]; «Pure PD» (n = 42),47.6%
same,"CGI-I, V2: No changes, share of patients",[1]; «Pure PD» (n = 42),35.7%
same,"CGI-I, V3: Minimal improvement, share of patients",[1]; «Pure PD» (n = 42),54.8%
same,"CGI-I, V3: No changes, share of patients",[1]; «Pure PD» (n = 42),4.8%
same,"CGI-I, V4: Marked improvement, share of patients",[1]; «Pure PD» (n = 42),81.0%
same,"CGI-I, V4: Minimal improvement, share of patients",[1]; «Pure PD» (n = 42),19.0%
same,"CGI-I, V4: No changes, share of patients",[1]; «Pure PD» (n = 42),.0%
same,"CGI-I, V5: Marked improvement, share of patients",[1]; «Pure PD» (n = 42),95.2%
same,"CGI-I, V5: Minimal improvement, share of patients",[1]; «Pure PD» (n = 42),.0%
same,"CGI-I, V5: Very marked improvement, share of patients",[1]; «Pure PD» (n = 42),4.8%
same,"CGI-I, V6: Marked improvement, share of patients",[1]; «Pure PD» (n = 42),47.6%
same,"CGI-I, V6: Very marked improvement, share of patients","[1]; «Pure PD» (n = 42), after 6 treatments",52.4%
same,"CGI-I, V3: Marked improvement, share of patients",[1]; «Pure PD» (n = 42),40.5%
same,"HADS-T, V6 − V1, mean paired difference","[2]; Group 1 («pure» PD, n=42, xenon monotherapy)",−11.214
same,HADS_T total score,[2]; Group 1,13.3
same,"HADS-T, V6 − V1, mean paired difference","[2]; Group 2 («comorbid» PD, n=39)",−11.436
same,HADS_T total score,[2]; Group 2,13.3
same,HADS_T overall score category,"[2]; both groups, end of treatment (V6)",norm
